# Source: PubChem BioAssay (NCI)
#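 96-well plates; 48 h exposure; 5 concentrations. Endpoints by linear interpolation between flanking doses. Not reached: highest tested concentration assigned. TGI is the concentration that stops growth completely.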
# Tested on: HOP-92 NSCLC
# Test: NCI anticancer screen, dose series, 48 h
row,SMILES,TGI [µM]
1,CC(C)(Cl)C(Br)CCC(C)(Br)C(Br)CBr (stereo not drawn),48.6
2,O=CN(CCN1CCCC1)C1CCc2cc(Cl)c(Cl)cc2C1 (stereo not drawn),> 100
3,OC1c2ccccc2CCC1C(O)(C(F)(F)F)C(F)(F)F (stereo not drawn),> 100

# Tested on: A498 renal
# Test: NCI anticancer screen, dose series, 48 h
row,SMILES,TGI [µM]
1,CCOCCOC(=O)C1CCC(=O)N1CN(C(C)=O)c1cc(OC)ccc1OC (stereo not drawn),> 100
2,CC(C)(Cl)C(Br)CCC(C)(Br)C(Br)CBr (stereo not drawn),34.8
3,CCOC(=O)C(/C=N\C(=S)Nc1c(CC)cccc1C(C)(C)C)=C(/O)c1ccccc1,> 100
4,OC1c2ccccc2CCC1C(O)(C(F)(F)F)C(F)(F)F (stereo not drawn),> 100

# Tested on: HCT-116 colon
# Test: NCI anticancer screen, dose series, 48 h
row,SMILES,TGI [µM]
1,CCOCCOC(=O)C1CCC(=O)N1CN(C(C)=O)c1cc(OC)ccc1OC (stereo not drawn),> 100
2,CC(C)(Cl)C(Br)CCC(C)(Br)C(Br)CBr (stereo not drawn),29.5
3,CCOC(=O)C(/C=N\C(=S)Nc1c(CC)cccc1C(C)(C)C)=C(/O)c1ccccc1,> 100
4,O=CN(CCN1CCCC1)C1CCc2cc(Cl)c(Cl)cc2C1 (stereo not drawn),24.9
5,OC1c2ccccc2CCC1C(O)(C(F)(F)F)C(F)(F)F (stereo not drawn),> 100

# Tested on: SF-539 CNS
# Test: NCI anticancer screen, dose series, 48 h
row,SMILES,TGI [µM]
1,CCOCCOC(=O)C1CCC(=O)N1CN(C(C)=O)c1cc(OC)ccc1OC (stereo not drawn),> 100
2,CC(C)(Cl)C(Br)CCC(C)(Br)C(Br)CBr (stereo not drawn),29
3,CCOC(=O)C(/C=N\C(=S)Nc1c(CC)cccc1C(C)(C)C)=C(/O)c1ccccc1,> 100
4,O=CN(CCN1CCCC1)C1CCc2cc(Cl)c(Cl)cc2C1 (stereo not drawn),48.2
5,OC1c2ccccc2CCC1C(O)(C(F)(F)F)C(F)(F)F (stereo not drawn),> 100

# Tested on: IGROV1 ovarian
# Test: NCI anticancer screen, dose series, 48 h
row,SMILES,TGI [µM]
1,CCOCCOC(=O)C1CCC(=O)N1CN(C(C)=O)c1cc(OC)ccc1OC (stereo not drawn),> 100
2,CC(C)(Cl)C(Br)CCC(C)(Br)C(Br)CBr (stereo not drawn),39.9
3,CCOC(=O)C(/C=N\C(=S)Nc1c(CC)cccc1C(C)(C)C)=C(/O)c1ccccc1,> 100
4,O=CN(CCN1CCCC1)C1CCc2cc(Cl)c(Cl)cc2C1 (stereo not drawn),97.6
5,OC1c2ccccc2CCC1C(O)(C(F)(F)F)C(F)(F)F (stereo not drawn),> 100

# Tested on: DU-145 prostate
# Test: NCI anticancer screen, dose series, 48 h
row,SMILES,TGI [µM]
1,CCOCCOC(=O)C1CCC(=O)N1CN(C(C)=O)c1cc(OC)ccc1OC (stereo not drawn),> 100
2,CC(C)(Cl)C(Br)CCC(C)(Br)C(Br)CBr (stereo not drawn),39.2
3,CCOC(=O)C(/C=N\C(=S)Nc1c(CC)cccc1C(C)(C)C)=C(/O)c1ccccc1,> 100
4,O=CN(CCN1CCCC1)C1CCc2cc(Cl)c(Cl)cc2C1 (stereo not drawn),> 100
5,OC1c2ccccc2CCC1C(O)(C(F)(F)F)C(F)(F)F (stereo not drawn),> 100

# Tested on: HT29 colon
# Test: NCI anticancer screen, dose series, 48 h
row,SMILES,TGI [µM]
1,CCOCCOC(=O)C1CCC(=O)N1CN(C(C)=O)c1cc(OC)ccc1OC (stereo not drawn),> 100
2,CC(C)(Cl)C(Br)CCC(C)(Br)C(Br)CBr (stereo not drawn),29.2
3,CCOC(=O)C(/C=N\C(=S)Nc1c(CC)cccc1C(C)(C)C)=C(/O)c1ccccc1,> 100
4,O=CN(CCN1CCCC1)C1CCc2cc(Cl)c(Cl)cc2C1 (stereo not drawn),18.2
5,OC1c2ccccc2CCC1C(O)(C(F)(F)F)C(F)(F)F (stereo not drawn),> 100

# Tested on: NCI-H460 lung
# Test: NCI anticancer screen, dose series, 48 h
row,SMILES,TGI [µM]
1,CCOCCOC(=O)C1CCC(=O)N1CN(C(C)=O)c1cc(OC)ccc1OC (stereo not drawn),> 100
2,CC(C)(Cl)C(Br)CCC(C)(Br)C(Br)CBr (stereo not drawn),31.1
3,O=CN(CCN1CCCC1)C1CCc2cc(Cl)c(Cl)cc2C1 (stereo not drawn),21.4
4,OC1c2ccccc2CCC1C(O)(C(F)(F)F)C(F)(F)F (stereo not drawn),> 100

# Tested on: EKVX NSCLC
# Test: NCI anticancer screen, dose series, 48 h
row,SMILES,TGI [µM]
1,CCOCCOC(=O)C1CCC(=O)N1CN(C(C)=O)c1cc(OC)ccc1OC (stereo not drawn),> 100
2,CC(C)(Cl)C(Br)CCC(C)(Br)C(Br)CBr (stereo not drawn),70.3
3,CCOC(=O)C(/C=N\C(=S)Nc1c(CC)cccc1C(C)(C)C)=C(/O)c1ccccc1,> 100
4,O=CN(CCN1CCCC1)C1CCc2cc(Cl)c(Cl)cc2C1 (stereo not drawn),> 100
5,OC1c2ccccc2CCC1C(O)(C(F)(F)F)C(F)(F)F (stereo not drawn),> 100

# Tested on: SK-MEL-2 melanoma
# Test: NCI anticancer screen, dose series, 48 h
row,SMILES,TGI [µM]
1,CCOCCOC(=O)C1CCC(=O)N1CN(C(C)=O)c1cc(OC)ccc1OC (stereo not drawn),> 100
2,CC(C)(Cl)C(Br)CCC(C)(Br)C(Br)CBr (stereo not drawn),30.3
3,CCOC(=O)C(/C=N\C(=S)Nc1c(CC)cccc1C(C)(C)C)=C(/O)c1ccccc1,> 100
4,OC1c2ccccc2CCC1C(O)(C(F)(F)F)C(F)(F)F (stereo not drawn),> 100

# Tested on: MALME-3M melanoma
# Test: NCI anticancer screen, dose series, 48 h
row,SMILES,TGI [µM]
1,CCOCCOC(=O)C1CCC(=O)N1CN(C(C)=O)c1cc(OC)ccc1OC (stereo not drawn),> 100
2,CC(C)(Cl)C(Br)CCC(C)(Br)C(Br)CBr (stereo not drawn),31.8
3,CCOC(=O)C(/C=N\C(=S)Nc1c(CC)cccc1C(C)(C)C)=C(/O)c1ccccc1,> 100
4,O=CN(CCN1CCCC1)C1CCc2cc(Cl)c(Cl)cc2C1 (stereo not drawn),27.3
5,OC1c2ccccc2CCC1C(O)(C(F)(F)F)C(F)(F)F (stereo not drawn),> 100

# Tested on: HL-60(TB) leukemia
# Test: NCI anticancer screen, dose series, 48 h
row,SMILES,TGI [µM]
1,CC(C)(Cl)C(Br)CCC(C)(Br)C(Br)CBr (stereo not drawn),36.5
2,CCOC(=O)C(/C=N\C(=S)Nc1c(CC)cccc1C(C)(C)C)=C(/O)c1ccccc1,> 100
3,O=CN(CCN1CCCC1)C1CCc2cc(Cl)c(Cl)cc2C1 (stereo not drawn),37.2
4,OC1c2ccccc2CCC1C(O)(C(F)(F)F)C(F)(F)F (stereo not drawn),> 100

# Tested on: RXF 393 renal
# Test: NCI anticancer screen, dose series, 48 h
row,SMILES,TGI [µM]
1,CCOCCOC(=O)C1CCC(=O)N1CN(C(C)=O)c1cc(OC)ccc1OC (stereo not drawn),> 100
2,CC(C)(Cl)C(Br)CCC(C)(Br)C(Br)CBr (stereo not drawn),38
3,CCOC(=O)C(/C=N\C(=S)Nc1c(CC)cccc1C(C)(C)C)=C(/O)c1ccccc1,> 100
4,O=CN(CCN1CCCC1)C1CCc2cc(Cl)c(Cl)cc2C1 (stereo not drawn),28.8
5,OC1c2ccccc2CCC1C(O)(C(F)(F)F)C(F)(F)F (stereo not drawn),> 100

# Tested on: A549 NSCLC
# Test: NCI anticancer screen, dose series, 48 h
row,SMILES,TGI [µM]
1,CCOCCOC(=O)C1CCC(=O)N1CN(C(C)=O)c1cc(OC)ccc1OC (stereo not drawn),> 100
2,CC(C)(Cl)C(Br)CCC(C)(Br)C(Br)CBr (stereo not drawn),92.2
3,CCOC(=O)C(/C=N\C(=S)Nc1c(CC)cccc1C(C)(C)C)=C(/O)c1ccccc1,> 100
4,O=CN(CCN1CCCC1)C1CCc2cc(Cl)c(Cl)cc2C1 (stereo not drawn),23.2
5,OC1c2ccccc2CCC1C(O)(C(F)(F)F)C(F)(F)F (stereo not drawn),> 100

# Tested on: SW-620 colon
# Test: NCI anticancer screen, dose series, 48 h
row,SMILES,TGI [µM]
1,CCOCCOC(=O)C1CCC(=O)N1CN(C(C)=O)c1cc(OC)ccc1OC (stereo not drawn),> 100
2,CC(C)(Cl)C(Br)CCC(C)(Br)C(Br)CBr (stereo not drawn),31.4
3,CCOC(=O)C(/C=N\C(=S)Nc1c(CC)cccc1C(C)(C)C)=C(/O)c1ccccc1,> 100
4,O=CN(CCN1CCCC1)C1CCc2cc(Cl)c(Cl)cc2C1 (stereo not drawn),> 100
